Results reported in patent publication EP0404115A1, “Bis(benzylpyrrolidine)Derivatives as dopamine agonists” (SYNTEX (U.S.A.) INC., priority 1989, dated 1990).
Where two headings read alike, the source gives them in different places.

Tests used:
[1] = cited from earlier work
DA₂ receptor = assay: Goldberg femoral in vivo dog model (DA2 activity, intra-arterial)
Experimental: The compounds were subsequently tested following intra-arterial administration in an in situ renal and femoral arterial preparation in the dog, as developed by L.I. Goldberg, to test for DA1 and DA2 dopamine activity, respectively. Details of the methodology are provided in the European J. Pharmacol., 89:137, 1983, as well as in Hypertension, 6:1-25, 1984.
The compound was injected directly into the renal or femoral artery for analysis of DA₁ or DA₂ activity, respectively. […] The compound was tested for relative activity in comparison to the standard DA₁ agonist, dopamine or the standard DA₂ agonist, DPDA. Specific DA₁ or DA₂ activity of the tested compound was verified by Sch 23390 or domperidone blockade.
Adult mongrel dogs of either sex (11-20 kg) were anesthetized with pentobarbital sodium (33 mg/kg, i.v.). the animals were intubated and ventilated with room air using a Harvard respirator. […]
The optimal dose of compound was defined as that which produced a maximum increase in blood flow before causing a change in systemic blood pressure. Efficacy ratios were determined by division of the optimal response of the test compound by the optimal response of the standard agent. […] Potency ratios were the quotients calculated from the division of the standard agent ED₅₀ by the ED₅₀ of the test compound. […]

DA₁ receptor = assay: Goldberg renal in vivo dog model (DA1 activity, intra-arterial); conditions: for Relative Efficacy to DA₁ Standard: optimal response divided by optimal response of dopamine
Experimental: The compounds were subsequently tested following intra-arterial administration in an in situ renal and femoral arterial preparation in the dog, as developed by L.I. […] Details of the methodology are provided in the European J. […] The compound was injected directly into the renal or femoral artery for analysis of DA₁ or DA₂ activity, respectively. […] Specific DA₁ or DA₂ activity of the tested compound was verified by Sch 23390 or domperidone blockade. Adult mongrel dogs of either sex (11-20 kg) were anesthetized with pentobarbital sodium (33 mg/kg, i.v.). the animals were intubated and ventilated with room air using a Harvard respirator. The abdominal aorta was catheterized with a Millar micro-tip (size: 5F) transducer via the right femoral artery for pressure monitoring. The right femoral vein was cannulated with PE-160 tubing for iv saline infusion, as well as, supplemental pentobarbital administration. The left renal artery was isolated through a lateral abdominal incision. An electromagnetic flowprobe of the appropriate size (9-12 mm circ) was placed around the artery and connected to a Carolina Medical electromagnetic flowmeter. Surface ECG leads were placed subcutaneously on the chest and limbs to monitor heart rate. A 25 gauge 3/4" needle bent 90°, 4 mm from the tip, was placed in the renal artery proximal to the probe and connected to an infusion pump delivering saline at a constant rate of 1 ml/min. […] Blood pressure was maintained by supplemental saline (10-20 ml/kg, iv). Bradykinin, a standard for nonspecific vasodilation, was given at 0.62 nmole doses, in 0.2 ml saline, i.a., prior to generating a dose response curve for dopamine in which 4-fold increase doses, ranging from 3 to 48 nmoles, were injected i.a. in 0.2 ml of saline. Test compound was injected similarly in 4-fold increasing doses up to a maximum of 3000 nmoles. […] The optimal dose of compound was defined as that which produced a maximum increase in blood flow before causing a change in systemic blood pressure. Efficacy ratios were determined by division of the optimal response of the test compound by the optimal response of the standard agent. ED₅₀ values were derived by regression analysis from individually generated dose response curves. Potency ratios were the quotients calculated from the division of the standard agent ED₅₀ by the ED₅₀ of the test compound.

Rats = assay: 7-day toxicity in rats; assay type: in vivo; conditions: 30 and 100 mg/kg once a day for 7 days
Experimental: Rats were administered compound I (R₁ and R₂ = H; X = (CH₂)m; m = 6; R,R isomer) in doses of 30 and 100 mg/kg once a day for 7 days.

[2] = tested on: spontaneously hypertensive rat (SHR); assay: Diuretic activity in saline-loaded spontaneously hypertensive rat; assay type: in vivo
Experimental: Additionally, these compounds were examined for diuretic activity for 6 hours following oral compound administration in the saline-loaded spontaneously hypertensive rat (SHR). Methods for this assay have been previously described (Rosenkranz, et al, Proc. West. Pharmacol. Soc. 28:87, 1985). The diuretic and natriuretic effects elicited by these compounds were characterized by an immediate onset of action.
Male spontaneously hypertensive SHR/NCr1BR rats weighing 320-430 gms were divided into four groups of seven animals. All animals were food- and water-deprived overnight. The following morning, each group of rats was hydrated with deionized water (20 ml/kg, po) forty-five minutes prior to the administration of vehicle or the test compound (R₁ and R₂ = H; X = (CH₂)n, m = 6).
Following vehicle or drug, the rats were placed in individual metabolic units. Fifteen minutes post-dose the animals were saline-loaded (30 ml/kg, po). Urine was collected at 1, 3 and 6 hour intervals post-saline-load. Urine volumes were measured and sodium and potassium levels were determined by flame photometry.
A two-way analysis of variance with time, treatment and their interaction was run as a repeated measures analysis. A secondary model of one-way analysis of variance (by time) was run using specified contrasts. The p-values for the contrasts were adjusted using Fisher's LSD strategy at each time point.

[3] = tested on: spontaneously hypertensive rats; assay: Oral antihypertensive activity in conscious restrained spontaneously hypertensive rat; assay type: in vivo
Experimental: The compounds of this invention were screened for oral antihypertensive activity in the conscious restrained rat. Adult male SHR were instrumented for blood pressure and heart rate measurements under light ether anesthesia. The animals were maintained on a plexiglass restraining board following surgery, and were allowed a 1 hour recovery period prior to the oral administration of the test compounds.
Male spontaneously hypertensive rats, SHR/NVr1Br (320-410 g) were fasted overnight. The following morning the left femoral artery and vein of each rat was cannulated under light ether anesthesia. following surgery, the rats were placed on a rat restraining board and allowed to recover from the effects of the ether for 1 hour. ECG leads were placed on the animal's chest to monitor heart reate. Animals were divided into groups of 4 and dosed with the test compound (R₁ and R₂ = H; X = (CH₂)m; m = 6).
Blood pressure and heart rate readings were taken at 5 minute intervals for the first 15 minutes and every 15 minutes thereafter for a duration of 4 hour post-compound administration. Data was evaluated by two-tailed paired t-tests.

Cl.NCCc1ccc(O)c(O)c1 [DOPAMINE HYDROCHLORIDE, 3,4-Dihydroxyphenethylamine Hydrochlorid]
Solubility ([1]; in alcohol): soluble
Solubility ([1]; in chloroform and ether): practically insoluble
Solubility ([1]; in water): Freely soluble

CCCN(CCC)CCc1ccc(O)c(O)c1 [DPDA, di-propyl dopamine]
ED₅₀ (DA₂ receptor; femoral blood flow increase, injection into femoral artery, anesthetized dog): 1.00 nmol
Relative Efficacy to DA₂ Standard (DA₂ receptor; optimal response divided by optimal response of DPDA): 1.00

NCCc1ccc(O)c(O)c1 [Dopamine, 3-hydroxytyramine]
Relative Efficacy to DA₁ Standard (DA₁ receptor): 1.00

Oc1ccc(C[C@H]2CCCN2CCCCCCN2CCC[C@@H]2Cc2ccc(O)c(O)c2)cc1O [Test Compound, R,R-1,6-bis[2-(3,4-dihydroxybenzyl)pyrrolidin-1-yl]hexane]
treatment related changes in clinical condition, body weight, or food intake (Rats): No treatment related changes were noted
urine and sodium retention ([2]; 3 mg/kg, po, urine at 1 hour, sodium at 1 and 3 hours): significant urine and sodium retention
diuresis and natriuresis ([2]; 10 mg/kg oral, one hour post administration): significant diuresis and natriuresis
diuresis and natriuresis ([2]; 30 mg/kg, 1, 3 and 6 hours post-dose): diuresis and natriuresis (p<0.05) were observed
kaliuresis ([2]; 30 mg/kg, po, 1 and 3 hour post-dose): significant kaliuresis
Relative Potency to DA₁ Standard (DA₁ receptor; ED50 of dopamine divided by ED50 of test compound): 11.71
Relative Efficacy to DA₁ Standard (DA₁ receptor): 1.05
ED₅₀ (DA₁ receptor; renal blood flow increase, injection into renal artery, anesthetized dog, phenoxybenzamine pretreated): 0.63 nmol
HR increase ([3]; 3 mg/kg): 6%
duration of HR increase ([3]; 3 mg/kg): 90 min
HR max. response ([3]; 10 mg/kg, decrease, p<0.05): -14%
duration of HR decrease ([3]; 10 mg/kg, post-compound administration): 1 h
HR change ([3]; 30 mg/kg): did not elicit any biologically significant changes in HR
MBP change ([3]; 3, 10 and 30 mg/kg): significant decrease in MBP
Peak decreases in MBP ([3]; across 3, 10 and 30 mg/kg): -17 to -22%
duration of action (MBP decrease) ([3]; across 3, 10 and 30 mg/kg): 15 to 210 min
